Like-named read-outs stand apart in the source and are kept apart here.
Legend:
[1] = tested on: patient's PBMCs; conditions: 6 weeks after vaccination vs before treatment
Method: The above described method is used for monitoring an immune response in 2 melanoma patients that were treated by an immunotherapy based on a peptide vaccine consisting of the HLA-B^∗0702-restricted T cell epitope […] (aa97-111) (SEQ ID NO: 40) of the tumor-associated antigen NY-ESO 1. In order to evaluate whether or not patients would benefit from a corresponding peptide vaccination therapy, HLA genotyping is done to test for HLA-B^∗0702 and tumor biopsies are examined for high NY-ESO 1 expression.
(§1) Before the vaccination therapy is started, the method described herein above is applied to establish HLA- and TCR-specific gene expression profiles of the patient's PBMCs. Furthermore the tumor size/mass is determined by CT scan. During therapy, the patients received 1 mg of the HLA-B^∗0702-restricted peptide […] every 2 weeks for 6 doses.
(§2) In addition HLA-expression profiles are established from tumor biopsies that are taken from the patients 12 weeks after the last vaccination.

[2] = tested on: tumor
Method: as §1, §2

[3] = tested on: HLA-B∗0702
From the text: as §2
For further investigation new biopsies of the tumors of both patients are taken for analysis of tumor antigen expression and the establishment of a HLA expression profile using the method of the present invention.

Q: With ATPMEAELARRSLAQ as the sequence, how does the “increased expression of the TCR-β sequence V4.1 D2 J2.1 C2” value ([1]; patient 1, PBMCs) read?
A: 9.6 fold

Q: What about the “increased expression of the TCR-α sequence V1.1 J23 C” value ([1]; patient 1, PBMCs, 1 mg peptide every 2 weeks for 6 doses) of the same sequence?
A: 10.3 fold

Q: And the “increased expression of the TCR-α sequence V1.1 J23 C” value ([1]; patient 2, PBMCs)?
A: 9.3 fold

Q: And the “increased expression of the TCR-β sequence V4.1 D2 J2.1 C2” value ([1]; patient 2, PBMCs)?
A: 10.6 fold

Q: What about the “tumor mass in the CT scan” value ([2]; both patients, along with the T cell response seen 6 weeks after vaccination) of the same sequence?
A: loss of the tumor mass

Q: And the “tumor in CT scan” value ([2]; patient 1, 12 weeks after vaccination)?
A: continuous tumor regression

Q: What about the “tumor in CT scan” value ([2]; patient 2, 12 weeks after vaccination) of the same sequence?
A: growing again

Q: What about the “HLA expression profile of tumor cells” value ([3]; patient 1, tumor biopsy 12 weeks after the last vaccination) of the same sequence?
A: normal HLA expression profile

Q: And the “expression of HLA-B∗0702 in tumor cells” value ([3]; patient 2, tumor biopsy 12 weeks after the last vaccination)?
A: completely lost

Q: What about the “expression of isotypes of HLA class I and II” value ([3]; patients' PBMCs, all time points) of the same sequence?
A: expressed at normal levels
